In patent publication US10881662B2, “Intracellular ATP enhancer” (StaGen Co., Ltd., priority 2016, dated 2021):

Tests used:
blood Hx (hypoxanthine) = test: Test Example 1: blood purine concentrations by HPLC, hypoxanthine; type: in vivo, human; settings: Week 0 to Week 2
Protocol: (§1) Various purines in peripheral blood were measured according to the Reference. Briefly, peripheral blood was collected with EDTA, 500 μL mixed with 500 μL ice cold 8% PCA, immediately vortexed for five seconds, and centrifuged at 12,000×g for 10 minutes at 4° C., and the supernatant was stored at −80° C. The processed sample was then dissolved, with 40 μL of 2M K2CO3 in 6 M KOH added to 650 μL of the solution to simultaneously precipitate the PCA and neutralize the solution. After this solution was centrifuged at 12,000×g for 10 minutes at 4° C., 160 μL of a mobile phase was added to 40 μL of the supernatant and applied to HPLC. The conditions of HPLC were also set according to the Reference. The amounts of purines are expressed in molar quantity contained in 1 L of whole blood.
(§2) Coolen E J, Arts I C, Swennen E L, Bast A, Stuart M A, Dagnelie P C. Simultaneous determination of adenosine triphosphate and its metabolites in human whole blood by RP-HPLC and UV-detection. J Chromatogr B Analyt Technol Biomed Life Sci. 2008 Mar. 15; 864(1-2): 43-51.
(§3) The following administration test was conducted for 16 Japanese healthy adult males, one subject in Phase I and 15 subjects in Phase II divided into Group A to Group E with 3 subjects each.
(§4) After Phase I, the following contents were administered to three subjects in each group:
(§5) Group A: febuxostat 20 mg twice a day for 14 days;
(§6) Group B: inosine 500 mg of twice a day for 14 days;
(§7) Group C: febuxostat 20 mg and inosine 500 mg twice a day for 14 days;
(§8) Group D: febuxostat 20 mg and inosine 1000 mg twice a day for 14 days; and
(§9) Group E: febuxostat 30 mg twice a day for 14 days.

urinary X = test: Test Example 1: urinary purine concentrations, xanthine; type: in vivo, human; settings: for change in urinary X concentration: Week 0 to Week 2, FIG. 5, single administration or combined use, doses not distinguished
urinary Hx = test: Test Example 1: urinary purine concentrations, hypoxanthine; type: in vivo, human; settings: Week 0 to Week 2, FIG. 5; single administration or combined use, doses not distinguished
Protocol: as §1
The purine concentrations were measured by the same method as in (4).
as §3, §4, §5, §6, §7
Group D: febuxostat 20 mg and inosine 1000 mg twice a day for 14 days; and […]

urinary uric acid = test: Test Example 1: urinary uric acid concentration/creatinine concentration; type: in vivo, human; settings: Week 0 to Week 2
Protocol: Since the urinary uric acid concentration varies with urine volume, a urinary uric acid amount was evaluated by using a urinary uric acid/creatinine value acquired by dividing by urinary creatinine concentration. The measurement method of the uric acid value was the same as that for the serum uric acid value.
as §3, §4, §5, §6, §7, §8, §9

blood X (xanthine) = test: Test Example 1: blood purine concentrations by HPLC, xanthine; type: in vivo, human; settings: Week 0 to Week 2
Protocol: as §1, §2, §3, §4, §5, §6, §7, §8, §9

serum uric acid = test: Test Example 1: serum uric acid value (uricase-peroxidase method); type: in vivo, human
Protocol: For a clinical chemistry automatic analyzer, a dry clinical chemistry analysis measuring unit manufactured by ARKRAY, Inc. was used, and the serum uric acid value was measured by using the uricase-peroxidase method.
The following administration test was conducted for 16 Japanese healthy adult males, one subject in Phase I and 15 subjects in Phase II divided into Group A to Group E with 3 subjects each. […]
After Phase I, the following contents were administered to three subjects in each group: […]
as §9

blood ATP = test: Test Example 1: blood purine concentrations by HPLC, ATP; type: in vivo, human; settings: Week 0 to Week 2
Protocol: as §1, §2, §3, §4, §5, §6, §7, §8, §9

[1] = test system: model mouse of amyotrophic lateral sclerosis; settings: model mouse of ALS; cited from earlier work
[2] = test system: patients with chronic stable angina; settings: high-dose administration; cited from earlier work
Parkinson's disease = settings: administration of inosine; cited from earlier work
multiple sclerosis = settings: administration of inosine; cited from earlier work
[3] = test system: erythrocytes with low ATP; settings: erythrocytes left at low temperature for 20 to 30 days, inosine added, left to stand for 1 hour; cited from earlier work
[4] = Group E: febuxostat 60 mg/day alone for 14 days
[5] = Groups A-C: febuxostat 20 mg and/or inosine 500 mg twice a day for 14 days
[6] = Group E: febuxostat 30 mg twice a day for 14 days

Cc1nc(-c2ccc(OCC(C)C)c(C#N)c2)sc1C(=O)O [febuxostat]
change in blood Hx (hypoxanthine) concentration (blood Hx (hypoxanthine); [4]): slight rise
change in blood Hx (hypoxanthine) concentration (blood Hx (hypoxanthine); [5]): unchanged
maximum concentration of urinary X (urinary X; [6]): 867.7 µM
maximum concentration of urinary X (urinary X; [5]): 556.0 µM
change in urinary X concentration (urinary X): significantly increased
change in urinary Hx concentration (urinary Hx): moderate rise
change in urinary uric acid/creatinine (urinary uric acid; [6]): reduced
change in urinary uric acid/creatinine (urinary uric acid; [5]): reduced
change in blood X (xanthine) concentration (blood X (xanthine); [4]): rise
change in blood X (xanthine) concentration (blood X (xanthine); [5]): significantly increased
serum uric acid value, lowest observed (serum uric acid; Phase II Group E: febuxostat 30 mg twice a day (60 mg/day) for 14 days): less than 2 mg/dL
serum uric acid value reduced by (serum uric acid; Phase II Group E: febuxostat 30 mg twice a day for 14 days): 3.93 mg/dL
serum uric acid value reduced by (serum uric acid; Phase II Groups A and C: febuxostat 20 mg alone or with inosine 500 mg, twice a day for 14 days): 2.53 mg/dL
serum uric acid value, not reduced to less than (serum uric acid; Phase II, any of the administration examples of 40 mg/day of febuxostat, 14 days): ≥ 2 mg/dL
change in blood ATP concentration (blood ATP; [6]): No certain tendency was observed
change in blood ATP concentration (blood ATP; [5]): not changed
disease progression of amyotrophic lateral sclerosis [1]: inhibits disease progression

Oc1ncnc2[nH]ncc12 [allopurinol]
symptoms of chronic stable angina [2]: suppressed

OC[C@H]1O[C@@H](n2cnc3c(O)ncnc32)[C@H](O)[C@@H]1O [inosine]
symptoms of Parkinson's disease (Parkinson's disease): alleviates symptoms
change in blood Hx (hypoxanthine) concentration (blood Hx (hypoxanthine); [5]): neither Hx nor X changed
maximum concentration of urinary X (urinary X; [5]): 61.9 µM
change in urinary X concentration (urinary X): no rise
change in urinary Hx concentration (urinary Hx): no rise
symptoms of multiple sclerosis (multiple sclerosis): alleviates symptoms
change in urinary uric acid/creatinine (urinary uric acid; [5]): significantly increased
change in blood X (xanthine) concentration (blood X (xanthine); [5]): neither Hx nor X changed
serum uric acid value increase due to inosine in the presence of febuxostat (serum uric acid; 1 g/day inosine in the presence of 40 mg/day of febuxostat (Group C versus Group A)): 0.3 mg/dL
serum uric acid value increase due to inosine in the presence of febuxostat (serum uric acid; 2 g/day inosine in the presence of 40 mg/day of febuxostat (Group D versus Group A)): 1.06 mg/dL
serum uric acid value raised by, on average (serum uric acid; Phase II Group B: inosine 500 mg twice a day (1 g per day) for 14 days, without febuxostat): 2.57 mg/dL
serum uric acid value, highest observed (up to) (serum uric acid; Phase II Group B: inosine 500 mg twice a day for 14 days): up to 8.1 mg/dL
change in blood ATP concentration (blood ATP; [5]): not changed
ATP in erythrocytes [3]: ATP increased
